Results: paper PMC7997155, “Permeability of the Cyanotoxin Microcystin-RR across a Caco-2 Cells Monolayer” (Toxins, 2021)
Starred links: 1 amine or outer side, 2 acyl side, 3 side chain; linkers in the order of their positions; H or OH if unused. Positions of bridges follow the written chain, without caps; N, C: chain ends. Non-standard residues stand in square brackets, D forms with d. Residues, ends and D or L forms follow the SMILES beside them. Adda = CO[C@@H](Cc1ccccc1)[C@@H](C)/C=C(C)/C=C/[C@H](N[*:1])[C@H](C)C(=O)[*:2]; dAsp(3S-Me) = C[C@H](C(=O)[*:3])[C@@H](N[*:1])C(=O)[*:2]; d(γGlu) = O=C(O)[C@@H](CCC(=O)[*:2])N[*:1]; NMeDha = C=C(NC)C(=O)O

Tests used:
Caco-2 cell monolayers = conditions: Caco-2 monolayers; ref historical data generated in our laboratory; cited from earlier work
Experimental: Experiments were performed as previously described, with a few modifications, described as follows. Four solutions of MC-RR (1, 10, 25, and 55 µM) were prepared in the transport buffer (HBSS, 4-(2-Hydroxyethyl)piperazine-1-ethanesulfonic acid (HEPES) 5 mM, pH 7.4) in glass vials and loaded into the donor compartments: 300 µL in compartments A (for A–B transport experiments) and 1000 µL in compartment B (for B–A transport experiments). The final concentration of methanol in the transport buffer for all MC-RR solutions was set at 1.3%, which was previously shown not to alter the integrity ...

Caco-2 cell monolayer = type: in vitro ADME, human
[1] = Binding to plastic (preliminary experiment); type: in vitro ADME
Experimental: Experiments were performed as previously described, with a few modifications, described as follows. Four solutions of MC-RR (1, 10, 25, and 55 µM) were prepared in the transport buffer (HBSS, 4-(2-Hydroxyethyl)piperazine-1-ethanesulfonic acid (HEPES) 5 mM, pH 7.4) in glass vials and loaded into the donor compartments: 300 µL in compartments A (for A–B transport experiments) and 1000 µL in compartment B (for B–A transport experiments). The final concentration of methanol in the transport buffer for all MC-RR solutions was set at 1.3%, which was previously shown not to alter the integrity of Caco-2 cell monolayers. In a preliminary experiment, the binding of MC-RR to plastic was checked and considered negligible (data not shown). At different time points (1, 2, 4, 6, and 24 h for A–B transport experiments and 1, 2, 4, and 6 h for B–A transport experiments), the whole volume of each compartment was harvested and stored in glass vials at −20 °C until analysis. Due to the toxicity of methanol 1.3% when applied in compartment B for 24 h, this time point was not performed for B–A experiments. Only Caco-2 cell monolayers with a TEER > 250 ohm.cm² before and after transport experiments were used. […]. These threshold values correspond to those preconized by the European Center for the Validation of Alternatives Methods. Four independent experiments were performed.

Row | Compound | Papp of lucifer yellow corresponding to a TEER value of 250 ohm.cm² (Caco-2 cell monolayers) [×10⁻⁶ cm/s] | Amount detected in the apical compartment (Caco-2 cell monolayer) | Amount detected in the basolateral compartment (Caco-2 cell monolayer) | Decrease of MC-RR amounts in the basolateral (donor) compartment (Caco-2 cell monolayer) | Involvement of an active efflux mechanism (A–B versus B–A Papp) (Caco-2 cell monolayer) | Binding to plastic [1]
1 | lucifer yellow | 0.6 | – | – | – | – | –
2 | C=C1C(=O)N[C@H](C)C(=O)N[C@@H](CCCNC(=N)N)C(=O)N[C@@H](C(=O)O)[C@H](C)C(=O)N[C@@H](CCCNC(=N)N)C(=O)N[C@@H](/C=C/C(C)=C/[C@H](C)[C@H](Cc2ccccc2)OC)[C@H](C)C(=O)N[C@@H](C(=O)O)CCC(=O)N1C [MC-RR, microcystin-RR] (R[Adda][d(γGlu)][NMeDha][dA]R[dAsp(3S-Me)]-OH; lactam N-7) | – | below the lower LOQ | below the lower LOQ | 25 % of the loaded amount | no involvement of an active efflux mechanism | negligible
